What all share (format): cell-based
Test [1] deals with E. coli DH5α. As to the kind of experiment: Antibacterial activity: MIC and growth curve against E. coli DH5α in 96-well plate. As to conditions: minimal inhibitory concentration against E. coli DH5α; 96-well plate, 5×10^5 CFU/mL, 37° C., judged after 8 h. The method in brief: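 MIC taken as lowest protein level with no bacterial growth, tracked by A600 every 30 min during 37 °C, 175 rpm culture. Two-fold protein series 50-12.5 μg/mL final, triplicate wells, against 5×10^5 CFU/mL of LB-washed mid-log cells.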

In test [2] the test system is E. coli BL21. The test can be described thus: MIC against Gram-negative bacteria: E. coli BL21. The method in brief:
(§1)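 Two-fold serial dilutions of each purified human EGF domain protein, three replicate wells per level, were combined with bacteria at a final 5×10^5 CFU/mL in LB. Cultures were shaken at 175 rpm, 37° C. The MIC was taken as the minimum concentration preventing growth.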

Test [3] concerns Pseudomonas aeruginosa. As to the kind of experiment: MIC against Gram-negative bacteria: Pseudomonas aeruginosa. The method in brief:
as §1

Test [4] concerns Klebsiella pneumonia. The test can be described thus: MIC against Gram-negative bacteria: Klebsiella pneumonia. A digest of the protocol:
as §1

Test [5] relates to Enterobacter cloacae. As to the kind of experiment: MIC against Gram-negative bacteria: Enterobacter cloacae. A digest of the protocol: as §1
In test [6] the test system is Aeromonas hydrophila. The test can be described thus: MIC against Gram-negative bacteria: Aeromonas hydrophila. A digest of the protocol:
as §1

For test [7], the system named is Citrobacter diversus. As to the kind of experiment: MIC against Gram-negative bacteria: Citrobacter diversus. A digest of the protocol: as §1
The test system of test [8] is Moraxella catarrhalis. The test can be described thus: MIC against Gram-negative bacteria: Moraxella catarrhalis. The method in brief:
as §1

Test [9] has as its system Proteus mirabilis. As to the kind of experiment: MIC against Gram-negative bacteria: Proteus mirabilis. The method in brief:
as §1

Test [10] deals with Proteus vulgaris. The test can be described thus: MIC against Gram-negative bacteria: Proteus vulgaris. A digest of the protocol:
as §1

In test [11] the test system is Serratia marcescens. As to the kind of experiment: MIC against Gram-negative bacteria: Serratia marcescens. A digest of the protocol:
as §1

Setting [12] is: 10 h cultivation at 37° C., 5×10^5 CFU/mL, two-fold serial dilution.
[13] abbreviates: E. coli BL21, 10 h cultivation at 37° C.
[14] abbreviates: P. aeruginosa, 10 h cultivation at 37° C.
Where [15] appears, read: K. pneumonia, 10 h cultivation at 37° C.
Where [16] appears, read: E. cloacae, 10 h cultivation at 37° C.
Where [17] appears, read: A. hydrophila, 10 h cultivation at 37° C.
[18] abbreviates: C. diversus, 10 h cultivation at 37° C.
Where [19] appears, read: M. catarrhalis, 10 h cultivation at 37° C.
The mark [20] stands for this setting: P. mirabilis, 10 h cultivation at 37° C.
Setting [21] is: P. vulgaris, 10 h cultivation at 37° C.
The mark [22] stands for this setting: S. marcescens, 10 h cultivation at 37° C.
The mark [23] stands for this setting: 96-well plate, 5×10^5 CFU/mL, 37° C., 10 h.

In general, MIC refers to the lowest concentration found to suppress growth. Substance “PRT1142 (DVNKCKISPCLDEENCVYRTDGYNCLCAPGYTGINCE; listed as Homo sapiens)” showed an MIC in [1] of 25 µg/mL. For the same substance, the “MIC E. coli BL21” value in test [2] (setting [12]) came to 50 µg/mL. The “MIC P. aeruginosa” value in [3] (setting [12]) is 25 µg/mL. For the same substance, the “MIC K. pneumonia” value in test [4] (setting [12]) amounted to 12.5 µg/mL. For the same substance, in test [5] (setting [12]), the “MIC E. cloacae” value came to 25 µg/mL. Also, the “MIC A. hydrophila” value in test [6] (setting [12]) was 25 µg/mL. For the same substance, the “MIC C. diversus” value in [7] (setting [12]) worked out at 50 µg/mL. Besides, in [8] (setting [12]), the “MIC M. catarrhalis” value was 25 µg/mL. In test [9] (setting [12]), the “MIC P. mirabilis” value came to 12.5 µg/mL. In addition, the “MIC P. vulgaris” value in [10] (setting [12]) was determined as 25 µg/mL. Besides, the “MIC S. marcescens” value in test [11] (setting [12]) turned out to be 50 µg/mL.

With “PRT919 (NIDDCPGNNCKNGGACVDGVNTYNCRCPPEWTGQYCT; listed as Homo sapiens)”, the MIC in test [1] was determined as 50 µg/mL; in [2] (setting [13]), 12.5 µg/mL; in test [3] (setting [14]), 50 µg/mL; in test [4] (setting [15]), 12.5 µg/mL; in test [5] (setting [16]), 25 µg/mL; in test [6] (setting [17]), 50 µg/mL. Also, the MIC in test [7] (setting [18]) was 25 µg/mL; in test [8] (setting [19]), 12.5 µg/mL; in test [9] (setting [20]) it was 25 µg/mL; in test [10] (setting [21]), 25 µg/mL; in test [11] (setting [22]) it was 50 µg/mL.

Take “PRT245 (DIDECASGKVICPYNRRCVNTFGSYYCKCHIGFELQYIS; listed as Homo sapiens)”: the MIC in [1] stood at 12.5 µg/mL. In addition, in [2] (E. coli BL21, 10 h cultivation at 37° C., 5×10^5 CFU/mL), the “MIC (μg/mL) E. coli BL21” value was found to be 50 µg/mL. Moreover, the “MIC (μg/mL) P. aeruginosa” value in test [3] (P. aeruginosa, 10 h cultivation at 37° C., 5×10^5 CFU/mL) is 12.5 µg/mL. Moreover, the “MIC (μg/mL) K. pneumonia” value in test [4] (K. pneumonia, 10 h cultivation at 37° C., 5×10^5 CFU/mL) amounted to 12.5 µg/mL. The “MIC (μg/mL) E. cloacae” value in test [5] (E. cloacae, 10 h cultivation at 37° C., 5×10^5 CFU/mL) stood at 12.5 µg/mL. Further, the “MIC (μg/mL) A. hydrophila” value in [6] (A. hydrophila, 10 h cultivation at 37° C., 5×10^5 CFU/mL) stood at 12.5 µg/mL. In addition, the “MIC (μg/mL) C. diversus” value in test [7] (C. diversus, 10 h cultivation at 37° C., 5×10^5 CFU/mL) is 25 µg/mL. Further, in test [8] (M. catarrhalis, 10 h cultivation at 37° C., 5×10^5 CFU/mL), the “MIC (μg/mL) M. catarrhalis” value was 12.5 µg/mL. Further, in test [9] (P. mirabilis, 10 h cultivation at 37° C., 5×10^5 CFU/mL), the “MIC (μg/mL) P. mirabilis” value stood at 25 µg/mL. For the same substance, the “MIC (μg/mL) P. vulgaris” value in test [10] (P. vulgaris, 10 h cultivation at 37° C., 5×10^5 CFU/mL) was determined as 12.5 µg/mL. Also, the “MIC (μg/mL) S. marcescens” value in test [11] (S. marcescens, 10 h cultivation at 37° C., 5×10^5 CFU/mL) was determined as 25 µg/mL.

As for “PRT1032 (DVNECDIPGHCQHGGTCLNLPGSYQCQCLQGFTGQYCD; listed as Homo sapiens)”, the MIC in test [1] was determined as 50 µg/mL; in test [2] (setting [13]) it was 12.5 µg/mL; in [3] (setting [14]), 50 µg/mL; in test [4] (setting [15]), 12.5 µg/mL; in [5] (setting [16]), 50 µg/mL; in [6] (setting [17]), 12.5 µg/mL. The MIC in test [7] (setting [18]) stood at 25 µg/mL; in test [8] (setting [19]) it was 50 µg/mL; in test [9] (setting [20]), 25 µg/mL; in [10] (setting [21]) it was 12.5 µg/mL; in [11] (setting [22]), 25 µg/mL.

“PRT547 (CQCHGHSDRCLPGSGVCVDCQHNTEGAHCERCQAGFVSSRDDPSAPCVS; listed as Homo sapiens)” displayed an MIC in test [1] of 25 µg/mL. Further, the “MIC against E. coli BL21” value in test [2] (setting [23]) worked out at 12.5 µg/mL. Moreover, in [3] (setting [23]), the “MIC against P. aeruginosa” value is 25 µg/mL. Further, the “MIC against K. pneumonia” value in [4] (setting [23]) worked out at 50 µg/mL. Moreover, the “MIC against E. cloacae” value in [5] (setting [23]) came to 25 µg/mL. Besides, in test [6] (setting [23]), the “MIC against A. hydrophila” value came out at 12.5 µg/mL. In addition, in test [7] (setting [23]), the “MIC against C. diversus” value stood at 25 µg/mL. Moreover, the “MIC against M. catarrhalis” value in test [8] (setting [23]) was 50 µg/mL. Also, in [9] (setting [23]), the “MIC against P. mirabilis” value was 25 µg/mL. Moreover, in [10] (setting [23]), the “MIC against P. vulgaris” value was 12.5 µg/mL. Moreover, the “MIC against S. marcescens” value in test [11] (setting [23]) is 25 µg/mL.

The values are drawn from patent publication US9833497B2, “Human originated EGF domain proteins and use of the same” (CHENGDU SOURCEBIO LIMITED-LIABILITY COMPANY, priority 2013, dated 2017).
